Experimental findings from patent US6262036A, “Method for inhibiting RNA translation using chimeric oligonucleoside compounds” (priority 2000, dated 2001) are described below.

[mp] = methylphosphonate linkage

The subject of series [1] is complementary RNA targets. The series can be described thus: Tm of Rp-enriched versus racemic methylphosphonate oligomers with RNA (Example 33). The format is binding. The settings on record: for Tm: 2.4 μM total strand concentration, pH 7.2, 100 mM sodium chloride.
The next series concerns S1-endonuclease. The series can be described thus: Stability to nuclease digestion by S1-endonuclease (Example 37). The settings on record: S1-endonuclease 0.5 units/mL, pH 5.0, 37° C.; 50% full length oligomer digested. The format is in vitro ADME. As to the method:
The following oligomers were tested for nuclease stability in the presence of S1-endonuclease.
S1-endonuclease was purchased from Promega Corp. (Catalog #E576B, Madison, Wis.). Aliquots of each chimeric oligomer (0.05-0.075 OD260 units) were individually added to polypropylene microcentrifuge tubes containing S1-endonuclease (0.5 units/mL) in 30 mM sodium acetate (pH 5.0), 50 mM NaCl, 1.0 mM zinc acetate and 5% glycerol; total reaction volume=10 μL. These tubes were incubated at 37° C. for specified time periods, quickly frozen in dry ice and then stored in a freezer at -20° C. […] Column=Vydac Protein C4 (catalog #214TP54, 4.9 mm i.d.×250 mm long). Buffer A=50 mM triethylammonium acetate (pH 7)/1% acetonitrile; Buffer B=50 mM triethylammonium acetate (pH 7)/50% acetonitrile. […] The samples were diluted with water (50 μL) and injected onto the column using a 100 μL sample loop. Peaks corresponding to full length oligomer and its degradation products were detected by monitoring at 260 nm. The amount of degradation occurring in each reaction was determined by measuring the reduction in peak area for the full-length oligomer (identified by comparison to an external control and/or by coinjecting undigested oligomer as an internal control). The data is shown in tabular format below, and in graphic format in FIG. 1.

A short description of series [2]: Stability to nuclease digestion in 10% fetal calf serum (Example 38). Conditions: pH 8.0, 37° C., 50% full length oligomer digested, first three time points. The format is in vitro ADME. As to the method: Multiple samples of each chimeric oligomer were prepared in 1.5 mL polypropylene microcentrifuge tubes on ice. Each sample contained oligomer (0.1 OD260 unit), 10% fetal calf serum (FCS, Gemini Bioproducts, Calabasas, Calif.), 20 mM HEPES (pH 8.0), 0.2% paramethylsulfonyl fluoride (PMSF), 175 mM KCl, 0.1 mM dithiothreitol, 0.1 mM EDTA, 2 mM MgCl2 and 4% glycerol--total volume=100 μL. The samples were incubated at 37° C. for specified time periods and then diluted with 0.4% NP-40/acetonitrile (35 μL), quickly frozen on dry ice and stored at -20° C. Samples were then individually thawed, diluted with water (635 μL) and analyzed immediately by reversed-phase HPLC according to the method given in the preceding example (except that a 2 mL sample loop was used to load the samples onto the column). Results are shown in tabular format below, and in graphical format in FIG. 2.

Series [3] concerns complementary synthetic RNA target. The series can be described thus: Binding affinities of chimeric backbone oligomers to RNA (Example 35). Details: KA (37° C.): unit not given here. Conditions: for Tm: 1:1 molar ratio, 2.4 micromolar total strand, pH 7.2, 100 mM NaCl; for KA (37° C.): two-state model fit. As to the method: The following oligonucleotides were tested for their ability to hybridize to a complementary synthetic RNA target.
The bases shown in parentheses contain the backbone modification indicated in the middle set of brackets for each description, and likewise the terminal portions of the oligomers contain linkage structures as shown in the terminal sets of brackets. The PS/DE notation indicates an alternating array of bases beginning with a phosphorothioate linkage. For example, if there are five bases in a sequence denoted as PS/DE, they include three phosphorothioate (PS) bonds and two phosphodiester (DE) bonds.
Each oligomer was mixed with its complementary synthetic RNA target in a 1:1 molar ratio in a buffer system consisting of 20 mM sodium phosphate buffer (pH 7.2), 100 mM NaCl, 0.03% potassium sarkosylate and 0.1 mM EDTA; total strand concentration=2.4 micromolar. The resulting solutions were heated to 70° C. and slowly cooled to 4° C. over a time period of approximately 4-6 hours. […] The binding constants at 37° C.

The test system of series [4] is endogenous eukaryotic RNaseH derived from HeLa cell nuclear extracts. The format is biochemical. Conditions: 10 μM oligomer, 1 μM RNA target.
The subject of the next series is pG1035 (SplicerCAT). Nature of the series: Inhibition of CAT expression, splicing target pG1035 (SplicerCAT), in COS-7 cells. Format: cell-based, African Green Monkey. Conditions: 1.0 μM oligomer; ± std error; normalized to protein and luciferase; chimeric oligomers also normalized to pG1036. As to the method:
COS-7 cells were transiently transfected with plasmids encoding either a target reporter gene or a control non-target reporter gene. These cells were then treated with various chimeric antisense or control oligomers and then assayed for the expression of the reporter genes.
pG1035: Splicer CAT, inserted into a pRc/CMV vector
COS 7 cells were plated at 1.5×10^5 cells/well in a 12 well plate format on the day before transfections began. All cultures were maintained at 37° C. On the next day, the transfection mixes were prepared. For each well of a 12 well plate, 1.0 μM oligomer was combined with 1 μg pGL2 or pSVβ+1 μg of the target CAT plasmid in 0.5 ml of Optimem (Gibco/BRL) and 18.75 μg Transfectam (for chimeric oligomers, Promega) or Lipofectamine (for all PS oligomers, Promega) also in 0.5 ml of Optimem. These quantities gave a 6.9 or 4.5 or 2.0 to 1 cationic lipid to oligomer plus DNA ratio, respectively, in one milliliter total. pGL2 and pSVβ served as transfection and oligomer specificity controls. […]
The cell lysates were then assayed for CAT, and luciferase or […] activity, and the total protein concentration was determined as described below. […]
[…] of reaction mixture was then added to each tube, which was then incubated for, typically, approximately 1 hour in a 37° C. oven. […] The sample was then counted in a Packard scintillation counter.
This assay was performed generally as follows according to standard procedures. 20 μof lysate was combined with 100 μl of luciferase assay reagent (Promega) and counted in a scintillation counter (Packard) within 20 seconds (as recommended by Promega). […]
Six μl of lysate per well was added, followed by 300 μl Coomassie Protein Assay Reagent (Pierce) per well. The individual sample plates were then read at A570 on a microplate reader (Molecular Devices). […]
Oligomers were transfected into COS-7 cells and lysates were made and assayed as described previously. […] N.D.=not determined. […]

“1634-1: 5'-TAG-CTT-CCT-TAG-CTC-CTG-3', racemic methylphosphonate (TAGCTTCCTTAGCTCCTG; all [mp], sugars by position and methylation of C not given here) [Oligomer 1634-1]”: the Tm in series [1] was determined as 38.2 °C.
The same measure, in the same setting: the same measure for “2253-1: 5'-AGA-GAG-AGA-GAG-AG-T-3', racemic methylphosphonate (AGAGAGAGAGAGAGT; all [mp], sugars by position not given here) [Oligomer 2253-1]”: 48.9 °C.
On to “2517-1: 5'-GTG-TGT-GTG-TGT-GTG-TA-3'-3', racemic methylphosphonate (GTGTGTGTGTGTGTGTA; all [mp], sugars by position not given here; further chemistry not fully specified) [Oligomer 2517-1]”, for which the Tm in series [1] was 41.0 °C.
With “2571-1: 5'-(G*T)(C*T)(T*C)(C*A)(T*G)(C*A)(T*G)(T*T)(G*T)-C-3', 75% MP(Rp) [Oligomer 2571-1]”, the Tm in series [1] was found to be 46.3 °C. For the same substance, the ΔTm in series [1] (Rp-enriched versus racemic oligomer of the pair) was found to be 8.2 °C.
For “2624-1: 3'-CTGTTG TACGT ACCTTCTG-5' Racemic MP (CTGTTGTACGTACCTTCTG; racemic methylphosphonate, chemistry not fully specified; listed 3' to 5') [Oligomer 2624-1]”, in series [1], the Tm worked out at 38.6 °C.
Consider “2681-1: 5'-GTCTTCCA(TGCAT)GTTGTCC-3' [MP][PS/DE][MP] [Oligomer 2681-1]”, for which the “Half-Life for Degradation” value in the series on S1-endonuclease was determined as 12.2 h. Besides, the “Half-Life for Degradation” value in series [2] was 8.1 h. In series [3], the Tm stood at 44.1 °C and the “KA (37° C.)” value is reported as 2.1 × 10^7.
As to “2687-1: 5'-GTCTTCCA(TGCAT)GTTGTCC-3' [75% MP(Rp)][DE][75% MP(Rp)] [Oligomer 2687-1]”, in series [3], the Tm was 52.8 °C and the “KA (37° C.)” value is listed as 2.6 × 10^9.
As for “2688-1: 5'-ATG-GTG-TCT-GTT-TGA-GGT-T-3', racemic methylphosphonate (ATGGTGTCTGTTTGAGGTT; all [mp], sugars by position and methylation of C not given here) [Oligomer 2688-1]”, the Tm in series [1] amounted to 40.0 °C.
In the case of “3214-1: 5'-GTCTTCCA(TGCAT)GTTGTCC-3' [MP(Rp)/DE][PS/DE][MP(Rp)/DE] [Oligomer 3214-1]”, in the series on S1-endonuclease, the “Half-Life for Degradation” value came to 5.0 h. The “Half-Life for Degradation” value in series [2] came out at 4.3 h. Further, in series [3], the Tm turned out to be 61.0 °C and the “KA (37° C.)” value is recorded as 2.3 × 10^14. The “RNaseH Cleavage after 2 Hrs. at 37° C.” value in series [4] was 38.0%.
Regarding “3256-1: 5'-GTCTTCCA(TGCAT)GTTGTCC-3' [MP(Rp)/DE][PS][MP(Rp)/DE] [Oligomer 3256-1]”, the “Half-Life for Degradation” value in the series on S1-endonuclease came out at 12.5 h. The “Half-Life for Degradation” value in series [2] came out at 16.2 h. In addition, in series [3], the Tm stood at 60.1 °C and the “KA (37° C.)” value is 5.5 × 10^13. Further, the “RNaseH Cleavage after 2 Hrs. at 37° C.” value in series [4] stood at 18.7%.
For “3257-1: 5'-GTCTTC(CATGCAT)GTTGTCC-3' [MP(Rp)/DE][PS/DE][MP(Rp)/DE] [Oligomer 3257-1]”, in series [3], the Tm is 60.9 °C and the “KA (37° C.)” value is reported as 2.1 × 10^14.
Consider “XV-7: 24mer, all phosphorothioate: 5' ccc tga gag aga gag aga ggt tcg 3' (CCCTGAGAGAGAGAGAGAGGTTCG; all phosphorothioate, sugars by position and methylation of C not given here)”, for which the “percent inhibition of CAT expression, pG1035 = splicing” value with pG1035 (SplicerCAT) was 17 ± 6%.
